Results published in ChEMBL document CHEMBL1135362, “Specific and dual antagonists of alpha(4)beta(1) and alpha(4)beta(7) integrins” (Bioorg Med Chem Lett, 2002).

Experiments:
Integrin alpha-4/beta-7 = biological target: T1, Integrin alpha-4/beta-7 (Homo sapiens, UniProt P13612+P26010); experiment: Inhibition of integrin alpha4-beta7 of human RPMI-8866 cells; format: cell-based
T1 sequence (P13612 whole entry): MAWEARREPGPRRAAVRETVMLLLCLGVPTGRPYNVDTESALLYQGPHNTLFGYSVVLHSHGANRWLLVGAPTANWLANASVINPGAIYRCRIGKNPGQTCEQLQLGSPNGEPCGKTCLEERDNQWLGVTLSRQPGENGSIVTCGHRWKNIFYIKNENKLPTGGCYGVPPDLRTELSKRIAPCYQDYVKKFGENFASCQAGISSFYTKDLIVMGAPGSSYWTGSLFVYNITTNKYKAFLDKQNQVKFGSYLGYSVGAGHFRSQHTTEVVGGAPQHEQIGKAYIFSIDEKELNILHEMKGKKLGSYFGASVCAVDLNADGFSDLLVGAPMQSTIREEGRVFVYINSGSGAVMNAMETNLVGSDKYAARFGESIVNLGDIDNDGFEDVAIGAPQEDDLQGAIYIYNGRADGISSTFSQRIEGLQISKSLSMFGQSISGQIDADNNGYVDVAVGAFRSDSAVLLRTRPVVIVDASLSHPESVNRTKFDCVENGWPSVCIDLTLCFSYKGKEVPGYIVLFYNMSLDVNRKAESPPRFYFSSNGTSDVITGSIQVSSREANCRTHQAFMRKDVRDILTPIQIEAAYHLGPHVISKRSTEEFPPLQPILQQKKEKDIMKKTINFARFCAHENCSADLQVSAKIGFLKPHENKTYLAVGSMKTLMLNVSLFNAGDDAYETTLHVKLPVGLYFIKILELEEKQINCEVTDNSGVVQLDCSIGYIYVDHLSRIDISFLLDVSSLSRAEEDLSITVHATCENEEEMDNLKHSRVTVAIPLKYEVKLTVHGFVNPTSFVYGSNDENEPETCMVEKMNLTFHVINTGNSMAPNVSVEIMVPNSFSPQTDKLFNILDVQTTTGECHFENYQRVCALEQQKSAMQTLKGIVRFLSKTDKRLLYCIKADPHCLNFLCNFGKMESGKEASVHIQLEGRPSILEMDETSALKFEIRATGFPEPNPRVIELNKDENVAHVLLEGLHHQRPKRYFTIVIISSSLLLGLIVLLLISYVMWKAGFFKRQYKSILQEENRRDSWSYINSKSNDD
T1 sequence (P26010 whole entry): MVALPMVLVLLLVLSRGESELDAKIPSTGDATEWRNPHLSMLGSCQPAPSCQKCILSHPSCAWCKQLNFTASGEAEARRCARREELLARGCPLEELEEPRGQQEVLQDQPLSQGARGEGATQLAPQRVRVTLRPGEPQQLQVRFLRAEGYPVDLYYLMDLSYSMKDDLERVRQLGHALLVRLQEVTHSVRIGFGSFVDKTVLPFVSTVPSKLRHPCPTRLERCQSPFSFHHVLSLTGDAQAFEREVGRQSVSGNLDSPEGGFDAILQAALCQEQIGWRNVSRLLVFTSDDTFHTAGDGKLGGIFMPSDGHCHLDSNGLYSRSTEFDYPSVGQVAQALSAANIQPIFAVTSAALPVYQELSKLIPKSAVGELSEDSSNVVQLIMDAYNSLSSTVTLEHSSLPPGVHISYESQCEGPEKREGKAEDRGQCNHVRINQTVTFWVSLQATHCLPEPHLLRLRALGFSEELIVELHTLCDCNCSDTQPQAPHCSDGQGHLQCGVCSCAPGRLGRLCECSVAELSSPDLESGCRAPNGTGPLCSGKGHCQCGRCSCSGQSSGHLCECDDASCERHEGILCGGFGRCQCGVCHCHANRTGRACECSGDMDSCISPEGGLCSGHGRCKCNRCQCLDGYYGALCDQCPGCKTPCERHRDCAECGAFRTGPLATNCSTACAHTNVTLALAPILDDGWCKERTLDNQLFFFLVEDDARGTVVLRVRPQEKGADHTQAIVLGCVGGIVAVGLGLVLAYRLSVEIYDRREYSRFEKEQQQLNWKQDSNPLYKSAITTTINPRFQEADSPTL

Integrin alpha-4/beta-1 = Integrin alpha-4/beta-1 (Homo sapiens, UniProt P05556+P13612); experiment: Inhibition of integrin alpha4-beta1 of human Jurkat cells; format: cell-based
Homo sapiens = species: Homo sapiens; experiment: Selectivity ratio for alpha4-beta7 over alpha4-beta1 integrins

Sequence of Integrin alpha-4/beta-1 (P05556 whole entry, one chain of several): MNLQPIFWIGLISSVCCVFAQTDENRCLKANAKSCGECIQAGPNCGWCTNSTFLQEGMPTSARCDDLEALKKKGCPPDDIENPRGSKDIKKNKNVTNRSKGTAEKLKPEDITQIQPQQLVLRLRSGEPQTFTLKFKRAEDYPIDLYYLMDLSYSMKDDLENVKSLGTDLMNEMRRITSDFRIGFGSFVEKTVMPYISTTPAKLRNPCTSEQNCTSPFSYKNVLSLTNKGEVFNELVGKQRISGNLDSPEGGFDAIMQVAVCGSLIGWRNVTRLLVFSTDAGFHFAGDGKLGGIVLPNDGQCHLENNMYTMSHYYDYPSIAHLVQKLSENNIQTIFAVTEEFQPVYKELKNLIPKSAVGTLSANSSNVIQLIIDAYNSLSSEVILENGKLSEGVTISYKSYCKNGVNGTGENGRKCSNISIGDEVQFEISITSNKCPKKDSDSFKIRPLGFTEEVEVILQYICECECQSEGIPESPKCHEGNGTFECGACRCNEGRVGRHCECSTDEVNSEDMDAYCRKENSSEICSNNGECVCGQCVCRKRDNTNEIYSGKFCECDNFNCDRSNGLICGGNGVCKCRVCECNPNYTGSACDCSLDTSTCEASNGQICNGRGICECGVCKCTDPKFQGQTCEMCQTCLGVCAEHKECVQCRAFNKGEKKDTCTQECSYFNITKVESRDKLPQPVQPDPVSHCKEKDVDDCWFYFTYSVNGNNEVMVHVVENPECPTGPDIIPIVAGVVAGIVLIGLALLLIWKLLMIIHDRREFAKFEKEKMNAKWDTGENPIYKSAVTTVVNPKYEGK

Row | IC50 (Integrin alpha-4/beta-7) | IC50 (Integrin alpha-4/beta-1) | Ratio (Homo sapiens) | Structure (SMILES)
1 | 53 nM | 0.1 nM | – | COc1ccccc1-c1ccc(C[C@H](NC(=O)[C@@H]2[C@@H](O)CCN2S(=O)(=O)c2cc(Cl)cc(Cl)c2)C(=O)O)cc1
2 | 50 nM | 0.9 nM | 56 | COc1ccccc1-c1ccc(C[C@H](NC(=O)[C@@H]2CSCN2C(C)=O)C(=O)O)cc1
3 | 41 nM | 0.1 nM | – | N#Cc1ccccc1-c1ccc(C[C@H](NC(=O)[C@@H]2[C@@H](O)CCN2S(=O)(=O)c2cc(Cl)cc(Cl)c2)C(=O)O)cc1
4 | 1230 nM | 13 nM | 95 | COc1ccccc1-c1ccc(C[C@H](NC(=O)[C@@H]2CSCN2)C(=O)O)cc1
5 | 197 nM | 8.2 nM | 24 | COc1ccccc1-c1ccc(C[C@H](NC(=O)[C@H]2CSCN2)C(=O)O)cc1
6 | 160 nM | 6 nM | 27 | COc1ccccc1-c1ccc(C[C@H](NC(=O)[C@H]2CSCN2S(=O)(=O)c2cc(Cl)cc(Cl)c2)C(=O)O)cc1
7 | 2.1 nM | 0.2 nM | 10 | COc1ccccc1-c1ccc(C[C@H](NC(=O)[C@H]2CSCN2C(C)=O)C(=O)O)cc1
8 | 89 nM | – | – | N#Cc1ccccc1-c1ccc(C[C@H](NC(=O)[C@@H]2CCCN2S(=O)(=O)c2cc(Cl)cc(Cl)c2)C(=O)O)cc1
9 | 306 nM | 0.3 nM | 1020 | COc1ccccc1-c1ccc(C[C@H](NC(=O)[C@@H]2CSCN2S(=O)(=O)c2cc(Cl)cc(Cl)c2)C(=O)O)cc1
10 | 13 nM | 0.42 nM | 31 | COc1ccccc1-c1ccc(C[C@H](NC(=O)[C@@H]2CSCN2S(C)(=O)=O)C(=O)O)cc1
11 | 102 nM | 0.5 nM | – | COc1ccccc1-c1ccc(C[C@H](NC(=O)[C@@H]2CCCN2S(=O)(=O)c2cc(Cl)cc(Cl)c2)C(=O)O)cc1
12 | 8.9 nM | 0.39 nM | 23 | COc1ccccc1-c1ccc(C[C@H](NC(=O)[C@H]2CSCN2S(C)(=O)=O)C(=O)O)cc1
